Measured values: the NIST ThermoML archive (doi:10.1021/je800224k)
± gives the expanded uncertainty stated by the source.

Details: Liquid

CCn1cc[n+](C)c1.F[B-](F)(F)F [1-ethyl-3-methylimidazolium tetrafluoroborate]
Details | mass density [kg/m3]
293.15 K, 101.33 kPa, Vibrating tube method | 1284.4 ± 4.8
313.15 K, 101.33 kPa, Vibrating tube method | 1269.1 ± 4.7
313.2 K, 10000 kPa, Bellows volumetry | 1274 ± 5
313.2 K, 20000 kPa, Bellows volumetry | 1278 ± 5
313.2 K, 30000 kPa, Bellows volumetry | 1282 ± 5
313.2 K, 40000 kPa, Bellows volumetry | 1287 ± 5
313.2 K, 50000 kPa, Bellows volumetry | 1291 ± 5
313.2 K, 60000 kPa, Bellows volumetry | 1295 ± 5
313.2 K, 70000 kPa, Bellows volumetry | 1299 ± 5
313.2 K, 80000 kPa, Bellows volumetry | 1302 ± 5
313.2 K, 90000 kPa, Bellows volumetry | 1306 ± 5
313.2 K, 100000 kPa, Bellows volumetry | 1310 ± 5
313.2 K, 110000 kPa, Bellows volumetry | 1313 ± 5
313.2 K, 120000 kPa, Bellows volumetry | 1317 ± 5
313.2 K, 130000 kPa, Bellows volumetry | 1320 ± 5
313.2 K, 140000 kPa, Bellows volumetry | 1323 ± 5
313.2 K, 150000 kPa, Bellows volumetry | 1327 ± 5
313.2 K, 160000 kPa, Bellows volumetry | 1330 ± 5
313.2 K, 170000 kPa, Bellows volumetry | 1333 ± 5
313.2 K, 180000 kPa, Bellows volumetry | 1336 ± 5
313.2 K, 190000 kPa, Bellows volumetry | 1339 ± 5
313.2 K, 200000 kPa, Bellows volumetry | 1342 ± 5
332.6 K, 10000 kPa, Bellows volumetry | 1259 ± 5
332.6 K, 20000 kPa, Bellows volumetry | 1264 ± 5
332.6 K, 30000 kPa, Bellows volumetry | 1268 ± 5
332.6 K, 40000 kPa, Bellows volumetry | 1273 ± 5
332.6 K, 50000 kPa, Bellows volumetry | 1277 ± 5
332.6 K, 60000 kPa, Bellows volumetry | 1281 ± 5
332.6 K, 70000 kPa, Bellows volumetry | 1285 ± 5
332.6 K, 80000 kPa, Bellows volumetry | 1289 ± 5
332.6 K, 90000 kPa, Bellows volumetry | 1293 ± 5
332.6 K, 100000 kPa, Bellows volumetry | 1297 ± 5
332.6 K, 110000 kPa, Bellows volumetry | 1300 ± 5
332.6 K, 120000 kPa, Bellows volumetry | 1304 ± 5
332.6 K, 130000 kPa, Bellows volumetry | 1307 ± 5
332.6 K, 140000 kPa, Bellows volumetry | 1311 ± 5
332.6 K, 150000 kPa, Bellows volumetry | 1314 ± 5
332.6 K, 160000 kPa, Bellows volumetry | 1317 ± 5
332.6 K, 170000 kPa, Bellows volumetry | 1321 ± 5
332.6 K, 180000 kPa, Bellows volumetry | 1324 ± 5
332.6 K, 190000 kPa, Bellows volumetry | 1327 ± 5
332.6 K, 200000 kPa, Bellows volumetry | 1330 ± 5
333.15 K, 101.33 kPa, Vibrating tube method | 1254 ± 4.6
352.7 K, 10000 kPa, Bellows volumetry | 1244 ± 5
352.7 K, 20000 kPa, Bellows volumetry | 1249 ± 5
352.7 K, 30000 kPa, Bellows volumetry | 1254 ± 5
352.7 K, 40000 kPa, Bellows volumetry | 1259 ± 5
352.7 K, 50000 kPa, Bellows volumetry | 1263 ± 5
352.7 K, 60000 kPa, Bellows volumetry | 1267 ± 5
352.7 K, 70000 kPa, Bellows volumetry | 1272 ± 5
352.7 K, 80000 kPa, Bellows volumetry | 1276 ± 5
352.7 K, 90000 kPa, Bellows volumetry | 1280 ± 5
352.7 K, 100000 kPa, Bellows volumetry | 1284 ± 5
352.7 K, 110000 kPa, Bellows volumetry | 1287 ± 5
352.7 K, 120000 kPa, Bellows volumetry | 1291 ± 5
352.7 K, 130000 kPa, Bellows volumetry | 1295 ± 5
352.7 K, 140000 kPa, Bellows volumetry | 1298 ± 5
352.7 K, 150000 kPa, Bellows volumetry | 1302 ± 5
352.7 K, 160000 kPa, Bellows volumetry | 1305 ± 5
352.7 K, 170000 kPa, Bellows volumetry | 1309 ± 5
352.7 K, 180000 kPa, Bellows volumetry | 1312 ± 5
352.7 K, 190000 kPa, Bellows volumetry | 1315 ± 5
352.7 K, 200000 kPa, Bellows volumetry | 1318 ± 5
353.15 K, 101.33 kPa, Vibrating tube method | 1239.3 ± 4.5
372.8 K, 10000 kPa, Bellows volumetry | 1230 ± 4
372.8 K, 20000 kPa, Bellows volumetry | 1235 ± 4
372.8 K, 30000 kPa, Bellows volumetry | 1240 ± 4
372.8 K, 40000 kPa, Bellows volumetry | 1245 ± 5
372.8 K, 50000 kPa, Bellows volumetry | 1250 ± 5
372.8 K, 60000 kPa, Bellows volumetry | 1254 ± 5
372.8 K, 70000 kPa, Bellows volumetry | 1258 ± 5
372.8 K, 80000 kPa, Bellows volumetry | 1263 ± 5
372.8 K, 90000 kPa, Bellows volumetry | 1267 ± 5
372.8 K, 100000 kPa, Bellows volumetry | 1271 ± 5
372.8 K, 110000 kPa, Bellows volumetry | 1275 ± 5
372.8 K, 120000 kPa, Bellows volumetry | 1279 ± 5
372.8 K, 130000 kPa, Bellows volumetry | 1282 ± 5
372.8 K, 140000 kPa, Bellows volumetry | 1286 ± 5
372.8 K, 150000 kPa, Bellows volumetry | 1290 ± 5
372.8 K, 160000 kPa, Bellows volumetry | 1293 ± 5
372.8 K, 170000 kPa, Bellows volumetry | 1297 ± 5
372.8 K, 180000 kPa, Bellows volumetry | 1300 ± 5
372.8 K, 190000 kPa, Bellows volumetry | 1303 ± 5
372.8 K, 200000 kPa, Bellows volumetry | 1307 ± 5
392.9 K, 10000 kPa, Bellows volumetry | 1216 ± 4
392.9 K, 20000 kPa, Bellows volumetry | 1221 ± 4
392.9 K, 30000 kPa, Bellows volumetry | 1227 ± 4
392.9 K, 40000 kPa, Bellows volumetry | 1232 ± 4
392.9 K, 50000 kPa, Bellows volumetry | 1237 ± 4
392.9 K, 60000 kPa, Bellows volumetry | 1241 ± 4
392.9 K, 70000 kPa, Bellows volumetry | 1246 ± 5
392.9 K, 80000 kPa, Bellows volumetry | 1250 ± 5
392.9 K, 90000 kPa, Bellows volumetry | 1254 ± 5
392.9 K, 100000 kPa, Bellows volumetry | 1259 ± 5
392.9 K, 110000 kPa, Bellows volumetry | 1263 ± 5
392.9 K, 120000 kPa, Bellows volumetry | 1267 ± 5
392.9 K, 130000 kPa, Bellows volumetry | 1270 ± 5
392.9 K, 140000 kPa, Bellows volumetry | 1274 ± 5
392.9 K, 150000 kPa, Bellows volumetry | 1278 ± 5
392.9 K, 160000 kPa, Bellows volumetry | 1282 ± 5
392.9 K, 170000 kPa, Bellows volumetry | 1285 ± 5
392.9 K, 180000 kPa, Bellows volumetry | 1289 ± 5
392.9 K, 190000 kPa, Bellows volumetry | 1292 ± 5
392.9 K, 200000 kPa, Bellows volumetry | 1295 ± 5
413 K, 10000 kPa, Bellows volumetry | 1202 ± 4
413 K, 20000 kPa, Bellows volumetry | 1208 ± 4
413 K, 30000 kPa, Bellows volumetry | 1213 ± 4
413 K, 40000 kPa, Bellows volumetry | 1219 ± 4
413 K, 50000 kPa, Bellows volumetry | 1224 ± 4
413 K, 60000 kPa, Bellows volumetry | 1229 ± 4
413 K, 70000 kPa, Bellows volumetry | 1233 ± 4
413 K, 80000 kPa, Bellows volumetry | 1238 ± 4
413 K, 90000 kPa, Bellows volumetry | 1242 ± 5
413 K, 100000 kPa, Bellows volumetry | 1247 ± 5
413 K, 110000 kPa, Bellows volumetry | 1251 ± 5
413 K, 120000 kPa, Bellows volumetry | 1255 ± 5
413 K, 130000 kPa, Bellows volumetry | 1259 ± 5
413 K, 140000 kPa, Bellows volumetry | 1263 ± 5
413 K, 150000 kPa, Bellows volumetry | 1267 ± 5
413 K, 160000 kPa, Bellows volumetry | 1270 ± 5
413 K, 170000 kPa, Bellows volumetry | 1274 ± 5
413 K, 180000 kPa, Bellows volumetry | 1278 ± 5
413 K, 190000 kPa, Bellows volumetry | 1281 ± 5
413 K, 200000 kPa, Bellows volumetry | 1285 ± 5
432.9 K, 10000 kPa, Bellows volumetry | 1189 ± 4
432.9 K, 20000 kPa, Bellows volumetry | 1195 ± 4
432.9 K, 30000 kPa, Bellows volumetry | 1200 ± 4
432.9 K, 40000 kPa, Bellows volumetry | 1206 ± 4
432.9 K, 50000 kPa, Bellows volumetry | 1211 ± 4
432.9 K, 60000 kPa, Bellows volumetry | 1216 ± 4
432.9 K, 70000 kPa, Bellows volumetry | 1221 ± 4
432.9 K, 80000 kPa, Bellows volumetry | 1226 ± 4
432.9 K, 90000 kPa, Bellows volumetry | 1230 ± 4
432.9 K, 100000 kPa, Bellows volumetry | 1235 ± 4
432.9 K, 110000 kPa, Bellows volumetry | 1239 ± 4
432.9 K, 120000 kPa, Bellows volumetry | 1243 ± 5
432.9 K, 130000 kPa, Bellows volumetry | 1247 ± 5
432.9 K, 140000 kPa, Bellows volumetry | 1252 ± 5
432.9 K, 150000 kPa, Bellows volumetry | 1255 ± 5
432.9 K, 160000 kPa, Bellows volumetry | 1259 ± 5
432.9 K, 170000 kPa, Bellows volumetry | 1263 ± 5
432.9 K, 180000 kPa, Bellows volumetry | 1267 ± 5
432.9 K, 190000 kPa, Bellows volumetry | 1270 ± 5
432.9 K, 200000 kPa, Bellows volumetry | 1274 ± 5
452.6 K, 10000 kPa, Bellows volumetry | 1176 ± 4
452.6 K, 20000 kPa, Bellows volumetry | 1182 ± 4
452.6 K, 30000 kPa, Bellows volumetry | 1188 ± 4
452.6 K, 40000 kPa, Bellows volumetry | 1193 ± 4
452.6 K, 50000 kPa, Bellows volumetry | 1199 ± 4
452.6 K, 60000 kPa, Bellows volumetry | 1204 ± 4
452.6 K, 70000 kPa, Bellows volumetry | 1209 ± 4
452.6 K, 80000 kPa, Bellows volumetry | 1214 ± 4
452.6 K, 90000 kPa, Bellows volumetry | 1219 ± 4
452.6 K, 100000 kPa, Bellows volumetry | 1223 ± 4
452.6 K, 110000 kPa, Bellows volumetry | 1228 ± 4
452.6 K, 120000 kPa, Bellows volumetry | 1232 ± 4
452.6 K, 130000 kPa, Bellows volumetry | 1236 ± 4
452.6 K, 140000 kPa, Bellows volumetry | 1240 ± 4
452.6 K, 150000 kPa, Bellows volumetry | 1245 ± 5
452.6 K, 160000 kPa, Bellows volumetry | 1248 ± 5
452.6 K, 170000 kPa, Bellows volumetry | 1252 ± 5
452.6 K, 180000 kPa, Bellows volumetry | 1256 ± 5
452.6 K, 190000 kPa, Bellows volumetry | 1260 ± 5
452.6 K, 200000 kPa, Bellows volumetry | 1264 ± 5
472.4 K, 10000 kPa, Bellows volumetry | 1163 ± 4
472.4 K, 20000 kPa, Bellows volumetry | 1169 ± 4
472.4 K, 30000 kPa, Bellows volumetry | 1175 ± 4
472.4 K, 40000 kPa, Bellows volumetry | 1181 ± 4
472.4 K, 50000 kPa, Bellows volumetry | 1187 ± 4
472.4 K, 60000 kPa, Bellows volumetry | 1192 ± 4
472.4 K, 70000 kPa, Bellows volumetry | 1197 ± 4
472.4 K, 80000 kPa, Bellows volumetry | 1202 ± 4
472.4 K, 90000 kPa, Bellows volumetry | 1207 ± 4
472.4 K, 100000 kPa, Bellows volumetry | 1212 ± 4
472.4 K, 110000 kPa, Bellows volumetry | 1217 ± 4
472.4 K, 120000 kPa, Bellows volumetry | 1221 ± 4
472.4 K, 130000 kPa, Bellows volumetry | 1226 ± 4
472.4 K, 140000 kPa, Bellows volumetry | 1230 ± 4
472.4 K, 150000 kPa, Bellows volumetry | 1234 ± 4
472.4 K, 160000 kPa, Bellows volumetry | 1238 ± 4
472.4 K, 170000 kPa, Bellows volumetry | 1242 ± 5
472.4 K, 180000 kPa, Bellows volumetry | 1246 ± 5
472.4 K, 190000 kPa, Bellows volumetry | 1250 ± 5
472.4 K, 200000 kPa, Bellows volumetry | 1253 ± 5
